What was measured:
[1] = target: SARS-CoV-2 Main Protease (SARS-CoV-2) (UniProt P0DTD1)
[2] = target: SARS-CoV-2 Main Protease (SARS-CoV-2) (UniProt P0DTD1); remark: listed apart in the source

Row | SMILES | relative solubility at 20 uM | relative solubility at 100 uM | inhibition ([1]; 50.0 µM) [%] | inhibition ([2]; 20.0 µM) [%] | inhibition ([2]; 50.0 µM) [%] | inhibition ([1]; 20.0 µM) [%] | IC50 [1] [µM]
1 | O=S(=O)(Cc1ccccc1)Nc1cnccc1N1CCCC1 | 0.99 | 0.98 | 0 | 1.48 | 1.38 |  | 
2 | C=CC(=O)N(c1ccc(C2(C)CC2)cc1)C(C(=O)Nc1ccc(OC)cc1C)c1cccnc1 (stereo unspecified) | 1 | 0.52 | 0 |  | 6.08 | 0 | 
3 | CC1(C)CCCN1S(=O)(=O)c1ccc2c(c1)C(=O)C(=O)N2 | 0.94 | 0.89 | 0 | -5.91 | -10.7 |  | 
4 | Cc1noc(C)c1CS(=O)(=O)Cc1cccc(Cl)c1 | 0.99 | 1 | 0 | 1.07 | -0.0149 |  | 
5 | O=C(NCCNc1ccccc1)c1cc(=O)[nH]c2ccccc12 | 1 | 0.98 | 35.4 | 32 | 61.6 |  | 
6 | Cc1ccc(NCc2cc(NC(=O)OC(C)(C)C)ccc2Br)cn1 | 0.9 | 0.7 | 35.9 | -3.3 | 9.52 |  | 
7 | O=C(NCCc1cccc2ccccc12)c1cc(=O)[nH]c2ccccc12 | 0.87 | 0.73 | 7.36 | -40.9 | 4.42 |  | 
8 | Cc1ccc(C)c(S(=O)(=O)N2CCN(C(=O)CCl)CC2)c1 | 0.99 | 0.98 | 96.3 |  | 101 | 90.8 | 
9 | N#Cc1ccc(CNC(=O)Cc2c[nH]c3ncccc23)nc1 | 1 | 1 |  | 4.15 | 0.616 | 0 | 
10 | CCN1CCN(Cc2ccccc2CNC(=O)[C@@]2(C)CCN2C(=O)OC(C)(C)C)CC1 (stereo in doubt) | 1 | 1 | 13.2 | -6.3 | -0.697 |  | 
11 | C=CC(=O)N(c1ccc2ncsc2c1)C(C(=O)Nc1ccc(OC)cc1)c1cccnc1 (stereo unspecified) | 0.92 | 0.87 |  | 4.02 | 15.4 | 0 | 
12 | Cc1ccncc1NC(=O)Cc1cccc(Br)c1 | 1.01 | 1 | 98.3 | 56.2 | 77.7 |  | 15.9
13 | CC(C(=O)Nc1cccc(NC2CCCC2)c1)c1cnccn1 (stereo unspecified) | 1 | 0.98 | -2.15 | -2.77 | 0.913 | 0 | 
14 | Cc1ccncc1NC(=O)Cc1cccc(C(N)=O)c1 | 1.01 | 1.01 | 0.535 | 2.66 | -5.83 |  | 
15 | O=C(Nc1ccnnc1)NC(Cc1ccccc1)C(=O)N1CCCC1 (stereo unspecified) | 1 | 1 | 0 | 0.0835 | 3.23 | 0 | 
16 | CS(=O)(=O)NCCc1ccccc1O | 1 | 1 | 0 |  | 14.4 | 0 | 
17 | Cc1nnn(NC(=O)Cc2cccc(Cl)c2)c1C | 1 | 1.01 | 28.7 | 39.6 | 70.4 |  | 73.4
18 | N#Cc1ccc(S(=O)(=O)N2CCN(C(=O)c3cc(=O)[nH]c4cc(F)ccc34)CC2)cc1 | 0.94 | 0.94 | 0.23 | 6.9 | 39.9 |  | 
19 | CCCSCC(=O)C(C#N)C(=O)Nc1ccccc1F (stereo unspecified) | 1 | 1 | 2.12 |  | -9.47 | 0.68 | 
20 | CCCC(C(=O)Nc1cnccc1C)c1cccc(Cl)c1 (stereo unspecified) | 1 | 0.99 | 78.3 | 77.9 | 90.6 |  | 5.48
21 | CCCN(CC1COc2ccccc2O1)C(=O)c1cc(=O)[nH]c2ccc(Cl)cc12 (stereo unspecified) | 0.98 | 0.89 | 0 | -8.21 | -15.6 |  | 
22 | C=CC(=O)N(c1ccc2c(ccn2C)c1)C(C(=O)NC(C)(C)C)c1cccnc1 (stereo unspecified) | 1.01 | 1 |  | -17.6 | -18 | 0 | 
23 | O=C(Cc1cc(Cl)c2c(c1)OCCO2)Nc1cnccc1-c1ccccc1 | 0.88 | 0.94 | 0 | -45.1 | -10.4 |  | 
24 | Cc1ncc2c(n1)CCC(NC(=O)NCc1cccc(N3C(=O)NC4(CCCC4)C3=O)c1)C2 (stereo unspecified) | 0.99 | 0.97 | 0 | -7.81 | -6.65 |  | 
25 | CS(=O)(=O)c1oc(-c2ccc(F)cc2)nc1S(=O)(=O)c1ccc(Cl)cc1 | 0.78 | 0.45 | 0 | 10.8 | 11 |  | 
26 | O=C(Cc1cccnc1)NCc1ccccc1 | 1 | 1 | 13 | 1.31 | 7.29 |  | 
27 | O=C(CCl)N1CCN(Cc2cccc3ccccc23)CC1 | 0.99 | 0.98 | 100 |  | 98.6 | 100 | 0.9
28 | COc1ccc2c(c1)C(C(=O)Nc1cncnc1C)CCC2 (stereo unspecified) | 1 | 1 | 2.78 | 6.97 | -24.1 |  | 

Row | SMILES | relative solubility at 20 uM | relative solubility at 100 uM | inhibition ([1]; 50.0 µM) [%] | inhibition ([2]; 20.0 µM) [%] | inhibition ([2]; 50.0 µM) [%] | inhibition ([1]; 20.0 µM) [%] | IC50 [1] [µM]
29 | O=C(CC1(c2ccccc2)CCCC1)Nc1cccnc1 | 1 | 1 | 13.9 |  | 3.98 | 0 | 
30 | CCOc1ccccc1/C=C1/C(=O)NC(=O)c2ccccc21 | 0.97 | 0.68 | 39.6 | -36.4 | 4.82 |  | 
31 | O=C(NCc1cccnn1)NC(Cc1ccccc1)c1cccs1 (stereo unspecified) | 1 | 1 | 0 |  | 13.9 | 0 | 
32 | C=CC(=O)N(c1ccc(C(C)OC)cc1)C(C(=O)Nc1ccccc1Br)c1cccnc1 (stereo unspecified) | 0.89 | 0.84 |  | 3.04 | 9.73 | 0 | 
33 | O=C(Cc1cccc(Cl)c1)Nn1cnc2ccccc21 | 1 | 1 | 45.3 | 74.2 | 87.7 |  | 4.27
34 | CC1CCCC(OCc2cccc(NC(=O)NC(C)c3ccn[nH]3)c2)C1 (stereo unspecified) | 1 | 0.85 | 0 |  | -40.1 | 0 | 
35 | O=C(NCc1cccnc1)Nc1cccc(OCC(F)F)n1 | 1 | 1 | 4.42 | 3.33 | 8.28 | 0 | 
36 | CC(=O)N1CCN(S(=O)(=O)c2ccsc2)CC1 | 0.99 | 1 | 3.62 |  | -20.6 | 0 | 
37 | C=CC(=O)N(c1ccc(C(C)(C)C)cc1)C(C(=O)Nc1ccc(OC)cc1OC)c1cccnc1 (stereo unspecified) | 0.98 | 0.84 | 45.9 | 48.9 | 41.6 | 5.03 | 
38 | C=CC(=O)N(c1ccc(C(C)(C)C)cc1)C(C(=O)NC1CCCCC1)c1cccnc1 (stereo unspecified) | 0.99 | 1 | 18.6 | 13.3 | 17.8 | 0 | 
39 | Cn1cncc1CNC(=O)Nc1cccc(OCC(F)F)n1 | 1 | 1 | 28.4 |  | 36.2 | 0 | 
40 | O=C(Nc1cccnc1)c1cc(Cl)ccc1O | 1 | 0.89 |  | 18.3 | 22.8 | 0 | 
41 | COc1cccc2c1OCC(NC(=O)c1cc(=O)[nH]c3cc(F)ccc13)C2 (stereo unspecified) | 0.9 | 0.86 | 0 | -1.01 | -0.175 |  | 
42 | Cn1nnnc1NC(=O)Cc1csc(C(C)(C)C)n1 | 0.99 | 1 | 0 | 1.85 | 5.13 |  | 
43 | COC(=O)c1sc(NS(=O)(=O)c2ccc(CF)cc2)nc1C(C)(C)C | 1 | 0.99 | 0 |  | -7.77 | 0 | 
44 | C=CC(=O)N(c1ccc(C(C)(C)C)cc1)C(C(=O)N[C@H]1CC[C@@H](C(=O)OC)C1)c1cccnc1 (stereo in doubt) | 1 | 0.98 | 6.96 | 7.31 | 22.2 | 0 | 
45 | Cc1nn(-c2ccccc2)c(Nc2cccc(C(F)(F)F)c2)c1NS(C)(=O)=O | 0.95 | 0.97 | -10.6 | 3.18 | -5.82 |  | 
46 | Cc1cccc(NC2CCN(c3ccc(S(N)(=O)=O)cc3)CC2)c1 | 0.96 | 0.87 | 45.9 | -2.59 | -0.838 | 39.4 | 
47 | C=CC(=O)N(c1ccc(C(C)(C)CC)cc1)C(C(=O)Nc1cccc(F)c1C)c1cccnc1 (stereo unspecified) | 0.86 | 0.72 |  | 16.3 | 31.8 | 3.79 | 
48 | C=CC(=O)N(c1ccc(C(F)(F)F)cc1)C(C(=O)NCCc1cccc(F)c1)c1cncc(C#N)c1 (stereo unspecified) | 1 | 0.99 | 96.5 | 53.5 | 93.2 |  | 3.01
49 | CCN(CC1COc2ccccc2O1)C(=O)c1cc(=O)[nH]c2ccc(Cl)cc12 (stereo unspecified) | 0.95 | 0.89 | 0 | 8.72 | 2.69 |  | 
50 | O=S1(=O)CCC(N2CCN(c3nc(-c4cccnc4)nc4ccccc34)CC2)C1 (stereo unspecified) | 1 | 0.94 | 0 | 13 | 14.1 | 0 | 
51 | O=C(c1cc(=O)[nH]c2ccc(F)cc12)N1CCN(S(=O)(=O)c2cccc(Cl)c2)CC1 | 0.98 | 0.87 | 52.8 | 1.39 | 25.7 |  | 
52 | N#CC(C(=O)Nc1ccccc1)C(=O)c1cccc(Cl)c1 (stereo unspecified) | 0.98 | 0.98 | 0 | 24.1 | 44 | 0 | 
53 | C=CC(=O)N(c1ccc(C2CCOC2)cc1)C(C(=O)NC(C)(C)C)c1cccnc1 (stereo unspecified) | 1.01 | 1.01 |  | -11.9 | 4.28 | 0 | 
54 | Cc1ccncc1NC(=O)Cc1cccc(CO)c1 | 1 | 1 | 1.14 | 2.87 | 6.05 |  | 
55 | CS(=O)(=O)c1ncc(Cl)c(C(=O)Nc2ccccc2Cc2ccccc2)n1 | 0.96 | 0.79 | 100 | 96.3 | 94.7 |  | 0.826

Source: the COVID Moonshot data (paper PMC11187573), “Identification of SARS-CoV-2 Mpro inhibitors through deep reinforcement learning for de novo drug design and computational chemistry approaches” (RSC Medicinal Chemistry, 2024)
